Values joined by “and” are separate entries in the source; they are usually repeats but may differ in a detail not shown here. Equal values may be shown once. After the bases stand the sugars from the 5' end (letter, count) and the backbone: PS all phosphorothioate, else s phosphorothioate and o phosphodiester by linkage. Methylation of C is not given here. e = 2'-O-(2-methoxyethyl) (MOE); d = 2'-deoxy (DNA)
Molecular target: DGAT2
Details: ASO

Sequence	target mRNA inhibition (HepG2, 0.12 µM)	target mRNA inhibition (HepG2, 2.5 µM)	target mRNA inhibition (HepG2, 10 µM)	target mRNA inhibition (HepG2, 20 µM)
AGTAGGGCACCAGCCCCCAG (sugars e5 d10 e5, PS)	0%			
AGTCAAACCTAGGTTCAGAC (sugars e5 d10 e5, PS)		81%	55%	
AGTTTCGGACCCACTGTGAC (sugars e3 d14 e3, PS)	60%			
ATACCTCCAGACATCAGGTA (sugars e5 d10 e5, PS)	50%			
ATAGCATTGCCACTCCCATT (sugars e2 d13 e5, PS)	57%			
ATAGCATTGCCACTCCCATT (sugars e5 d10 e5, PS)	57%			
ATATAGTTCCTGGTGGTCAG (sugars e5 d10 e5, PS)	53%			
ATCACAATATATGGGCAAGC (sugars e5 d10 e5, PS)		83% and 86%	92% and 94%	
ATCAGCTATAGAATCAGACA (sugars e5 d10 e5, PS)		16%	75%	
ATCCAAAGATATAGTTCCTG (sugars e5 d10 e5, PS)	39%			
ATCCAATGCACCTTGTATTA (sugars e5 d10 e5, PS)		57%	93%	
ATCCATGTCAGAGAGGCTCA (sugars e5 d10 e5, PS)		66%	88%	
ATCCTGCCAGAGTTATCCTC (sugars e5 d10 e5, PS)		86%	77%	
ATGCCCTTGCTGTAGGACCC (sugars e5 d10 e5, PS)		79% and 73%	90%	
ATGGAGCTCAGAGACTCAGC (sugars e3 d14 e3, PS)	71%			
ATGGAGCTCAGAGACTCAGC (sugars e5 d10 e5, PS)	78%			
ATGGGAAAGTAGTCTCGAAA (sugars e5 d10 e5, PS)	0%			
ATTTCTTTTAAATAACCCAC (sugars e5 d10 e5, PS)	1%			
CAAGAGGTAAGGCCAAGGAA (sugars e5 d10 e5, PS)		75%	90%	
CACAGCGATGAGCCAGC (sugars e3 d10 e4, PS)		50% and 31%		
CACAGTTAAAGTGTGGTACA (sugars e5 d10 e5, PS)		52%	88%	
CACCAGCTGGATGGGAAAGT (sugars e5 d10 e5, PS)	31%			
CACCTGTTACTACATGTCTA (sugars e5 d10 e5, PS)		68%	93%	

Sequence	target mRNA inhibition (HepG2, 0.12 µM)	target mRNA inhibition (HepG2, 2.5 µM)	target mRNA inhibition (HepG2, 10 µM)	target mRNA inhibition (HepG2, 20 µM)
CACTCTGTGATGCTCTGGAG (sugars e5 d10 e5, PS)		60%	84%	
CAGAAGAGCAAAGGCTTGCT (sugars e5 d10 e5, PS)		50%	94%	
CAGAAGGCACCCAGGCCCAT (sugars e5 d10 e5, PS)	33%			
CAGCAGGTTGTGTGTCTTCA (sugars e3 d14 e3, PS)	47%			
CAGCCTGGACAAGTCCTGCC (sugars e3 d14 e3, PS)	72%			
CAGCCTGGACAAGTCCTGCC (sugars e5 d10 e5, PS)	84%		81% and 90% and 88%	86%
CAGGACCCCGGAGTAGGCGG (sugars e2 d13 e5, PS)	76%			
CAGGACCCCGGAGTAGGCGG (sugars e3 d14 e3, PS)	53%			
CAGGACTTGGTACCTGATTC (sugars e5 d10 e5, PS)	35%			
CAGGCATGGAGCTCAGAGAC (sugars e2 d13 e5, PS)	70%			
CAGGCATGGAGCTCAGAGAC (sugars e3 d14 e3, PS)	76%			
CAGGCCACTCCCAGTACAAG (sugars e5 d10 e5, PS)	1%			
CAGGGCCTCCATGTACATGG (sugars e5 d10 e5, PS)	37%			
CAGGGTCTGCCACTCTCTAC (sugars e5 d10 e5, PS)		56%	85%	
CAGGTCTATGCTGCAGTCAT (sugars e5 d10 e5, PS)		53% and 45%	89% and 82%	
CATAGGCCAGGAGGAAGAGT (sugars e5 d10 e5, PS)	35%			
CATCACATGCTTATCCTTGA (sugars e5 d10 e5, PS)	41%			
CATCAGGTACTCCCTCAACA (sugars e5 d10 e5, PS)	35%			
CATGGAGCTCAGAGACTCAG (sugars e2 d13 e5, PS)	71%			
CATGGAGCTCAGAGACTCAG (sugars e5 d10 e5, PS)	65%			
CATTGCCACTCCCATTCTTT (sugars e5 d10 e5, PS)	44%			
CATTGCTCAGATCACTCTGC (sugars e5 d10 e5, PS)		88%	74%	
CCAACAGTGGTGATGGGCTT (sugars e5 d10 e5, PS)	60%			

Sequence	target mRNA inhibition (HepG2, 0.12 µM)	target mRNA inhibition (HepG2, 2.5 µM)	target mRNA inhibition (HepG2, 10 µM)	target mRNA inhibition (HepG2, 20 µM)
CCAACTCCTCCCCTTGGCAG (sugars e5 d10 e5, PS)	28%			
CCAAGTAAGCCTCGGTGTCC (sugars e5 d10 e5, PS)	32%			
CCACAGCGATAATCACA (sugars e3 d10 e4, PS)		63% and 60%	84% and 75%	
CCACTCCCATTCTTTGAAAG (sugars e5 d10 e5, PS)	34%			
CCACTGGAGCACTGAGATGA (sugars e2 d13 e5, PS)	54%			
CCACTGTTGCTGAGCTCATG (sugars e5 d10 e5, PS)		68%	88%	
CCCACTGGAGCACTGAGATG (sugars e5 d10 e5, PS)	78%			
CCCATCATGACCAGGCCCTG (sugars e5 d10 e5, PS)		31%	77%	
CCCGGAGTAGGCGGCTATGA (sugars e5 d10 e5, PS)		60%	89%	
CCTAAAGGTGAAGACTGGCT (sugars e5 d10 e5, PS)		77% and 79%	93% and 94%	
CCTCATCTCAGTGCCCAAAG (sugars e5 d10 e5, PS)		25%	63%	
CCTCGAAGATCACCTGCTTG (sugars e5 d10 e5, PS)	53%			
CCTCGATGTTACATTAAGGG (sugars e5 d10 e5, PS)		82% and 88%	86% and 90%	
CCTGGACAAGTCCTGCCCAT (sugars e3 d14 e3, PS)	70%			
CCTTCCAGGGAATAAAATAC (sugars e5 d10 e5, PS)	3%			
CCTTTGAAATCCAATGCACC (sugars e5 d10 e5, PS)		62%	92%	
CGCGATTCACTGAGGACCTC (sugars e5 d10 e5, PS)		73% and 74%	83% and 93%	
CTAAGCTTATTAGGTGTCTT (sugars e5 d10 e5, PS)		68%	81%	
CTCACCCCTGTACTCAGCCC (sugars e5 d10 e5, PS)		72%	88%	
CTCAGAGACTCAGCCGCACC (sugars e3 d14 e3, PS)	70%			
CTCAGTCACTGACTCACAAC (sugars e5 d10 e5, PS)		54%	88%	
CTCCCACCTGAGTGCTGCAA (sugars e5 d10 e5, PS)		74%	90%	
CTCTGCTTCTTGGGCATCTG (sugars e5 d10 e5, PS)		78% and 70%	90% and 85%	

Sequence	target mRNA inhibition (HepG2, 0.12 µM)	target mRNA inhibition (HepG2, 2.5 µM)	target mRNA inhibition (HepG2, 10 µM)	target mRNA inhibition (HepG2, 20 µM)
CTGACCTCAGGGTGATCAAG (sugars e5 d10 e5, PS)	31%			
CTGCTTCTTGGGCATCTGCT (sugars e5 d10 e5, PS)		76% and 73%	88% and 80%	
CTGGACCCATCGGCCCCAGG (sugars e5 d10 e5, PS)	41%			
CTTAAGGCAAAGTAACATAC (sugars e5 d10 e5, PS)		48% and 57%	75% and 96%	
CTTAGGCATGCTTCCTCCCA (sugars e5 d10 e5, PS)		57%	84%	
CTTCTTAAAAAAGACCTAAC (sugars e5 d10 e5, PS)	26%			
CTTTGGATAGTCGATTTACC (sugars e5 d10 e5, PS)		59%	88%	
CTTTTAAATAACCCACAGAC (sugars e5 d10 e5, PS)	0%			
GAAAGTAGTCTCGAAAGTAG (sugars e5 d10 e5, PS)	0%			
GAATGCACTGAGTTTCTGCT (sugars e5 d10 e5, PS)		73% and 63%	92% and 87%	
GACAATGAGTAAGGGTATTC (sugars e5 d10 e5, PS)		48%	83%	
GACAGGACCCACTGGAGCAC (sugars e5 d10 e5, PS)	44% and 69%			
GACCTTGGGCAAGTTACCTA (sugars e5 d10 e5, PS)		50% and 71%	89% and 94%	
GAGATGACCTGTAGCTGCTT (sugars e5 d10 e5, PS)	34%			
GAGCTCAGAGACTCAGCCGC (sugars e5 d10 e5, PS)	81%			
GAGCTTCACCAGGGCCTCCA (sugars e5 d10 e5, PS)	52%		74% and 79%	83% and 88%
GAGGCCAAGGACAGAGGTTC (sugars e5 d10 e5, PS)		66%	81%	
GATAGCATTGCCACTCCCAT (sugars e3 d14 e3, PS)	75%			
GATAGCATTGCCACTCCCAT (sugars e5 d10 e5, PS)	66%			
GATCTCAGTCACTGACTCAC (sugars e5 d10 e5, PS)		57%	91%	
GATGCTGGATCCAGTGCCTA (sugars e5 d10 e5, PS)	53%			
GATGGCAACCTAAGGAGTGA (sugars e5 d10 e5, PS)	37%			
GCAATGCCAATGCCTAGGTC (sugars e5 d10 e5, PS)		87% and 89%	82% and 91%	
